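In this assay, cells in 96-well plates receive the compound at five concentrations for 48 hours. Endpoints are linearly interpolated between the surrounding concentrations. At the GI50, growth is halved. TGI denotes the concentration required for complete inhibition of growth.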

In the first assay the test system is A498 renal. Put plainly: NCI tumour cell line growth inhibition, 48 h.
As for `CC1Cn2c(nc3ccccc32)NC1=O` (stereo not drawn), the TGI is over 100 µM.

The next assay relates to OVCAR-4 ovarian. Put plainly: NCI tumour cell line growth inhibition, 48 h.
Molecule `CCC1(C(=O)OC(C)(C)C)OC12C(C)CCCC2C` (stereo not drawn) gave a TGI of over 100 µM.

On to `Cc1ccc(-c2cc(N)n(-c3nc4c(c(=O)n(C)c(=O)n4C)n3C)n2)cc1`, for which the TGI is over 100 µM.

Molecule `O=C(Cc1ccccc1)NN1C(=O)/C(=C\c2cccc(O)c2)SC1=Nc1ccccc1` displayed a TGI of over 100 µM.

Turning to `CC1CCOc2ccc(cc2)C=Nc2ccc(cc2)CCc2ccc(cc2)N=Cc2ccc(cc2)OCC1` (stereo not drawn), the TGI was over 100 µM.

Consider `COC(=O)[C@H](Cc1ccccc1)NC(=O)[C@H](Cc1ccccc1)NC(=O)[C@@H]1CCCN1C(=O)N[C@H]1C2C=CC(C2)C1C(=O)N1CCC[C@H]1C(=O)N[C@@H](C)C(=O)N[C@H](C(=O)OC)C(C)C` (stereo partly drawn), for which the TGI is over 100 µM.

The molecule `O=C1c2ccccc2-c2nc(-c3cccc([N+](=O)[O-])c3)nnc21` yielded a TGI of over 100 µM.

In the case of `CNC(=O)Oc1ccc(-c2cn3cc(OC(=O)NC)ccc3n2)cc1`, the TGI is over 100 µM.

As for `CC(=O)N1N=C(c2ccc3ccccc3c2O)CC1C(=O)c1ccco1` (stereo not drawn), the TGI was over 100 µM.

The molecule `N#Cc1nc(-c2cccs2)oc1N` showed a TGI of over 100 µM.

`NC(=O)NNC(=O)c1nc[nH]c1[N+](=O)[O-]` gave a TGI of over 100 µM.

On to `O=c1c2c([N+](=O)[O-])cccc2nc2[nH]c3ccccc3n12`, for which the TGI was determined as 23.9 µM.

The molecule `Cc1cc(C)cc(Nc2cc(=O)[nH]c(=O)[nH]2)c1` gave a TGI of over 100 µM.

Turning to `Nn1c(CCCCCCCCc2nnc(COc3ccc(Cl)cc3)n2N)nnc1COc1ccc(Cl)cc1`, the TGI is over 100 µM.

Take `O=C(O)c1ccc(S(=O)(=O)c2ccccc2[N+](=O)[O-])cc1`: the TGI is over 10 µM.

For the molecule `C[C@]12CCc3nc(Nc4ccccc4)sc3C1=CC[C@@H]1[C@@H]2CC[C@]2(C)/C(=N/NC(N)=S)CC[C@@H]12`, the GI50 is 7.86 µM and the TGI was over 100 µM.

Consider `COC(=O)C1=C2SCc3cccc(c3)CSC3=C(C(=O)OC)SC(=C(S2)S1)S3`, for which the TGI was over 100 µM.

On to `Nc1cccc(Nc2nc3ccccc3nc2NS(=O)(=O)c2ccccc2)c1`, for which the TGI was determined as 46.5 µM.

Consider `COC(=O)C1=CC(=O)OC1(OO)c1ccccc1` (stereo not drawn), for which the TGI was over 100 µM.

For `O=C1NC(N/N=C/C(O)C(O)C(O)CO)=N/C1=C\c1ccco1` (stereo not drawn), the TGI was over 100 µM.

`Cc1ccn2c(=O)cc(-c3ccccc3)nc2c1`: the TGI was over 100 µM.

Regarding `O=c1[nH]nc(Cc2ccc([N+](=O)[O-])cc2)n1CCO`, the TGI was over 100 µM.

The molecule `Cc1cc(C2(O)C=C(C(C)(C)C)C(=O)C(C(C)(C)C)=C2)c(C)cc1C1(O)C=C(C(C)(C)C)C(=O)C(C(C)(C)C)=C1` yielded a TGI of over 100 µM.

Consider `O=C(O)CC[N+]1=CCC(c2ccccc2)(c2ccccc2)O1`, for which the TGI is over 100 µM.

Regarding `CC1=NN(c2ccc(S(=O)(=O)O)cc2)C2(C1)SCC(=O)N2c1nc2ccccc2s1` (stereo not drawn), the TGI was over 100 µM.

As to `CCOC(=O)/C=C(/C(=O)OCC)n1ccc(N)nc1=O`, the TGI was over 100 µM.

Take `CCCSc1ccc2[nH]c(/N=C/c3ccco3)cc2c1`: the TGI is over 100 µM.

Molecule `Cc1ccc2c(c1)[nH]c1cc(C(F)(F)F)ccc1[p+]2=O` (stereo not drawn) registered a TGI of 79.2 µM.

In the case of `NCCN=C(Nc1ccccc1)Nc1ccccc1`, the TGI is over 100 µM.

In turn, `CCC1(C)N=C(c2cnccn2)NN1c1ccc(Cl)cc1` (stereo not drawn) registered a TGI of over 100 µM.

With `CC1Cn2c(nc3ccccc32)NC1=O` (stereo not drawn), the TGI was over 100 µM.

On to `C/C=C/C(O)P1(=O)N(Cc2ccccc2)[C@@H]2CCCC[C@H]2N1Cc1ccccc1` (stereo partly drawn), for which the TGI was over 25 µM.

Another assay has as its system HCC-2998 colon. Put plainly: NCI tumour cell line growth inhibition, 48 h.
Molecule `CCC1(C(=O)OC(C)(C)C)OC12C(C)CCCC2C` (stereo not drawn) displayed a TGI of 45.1 µM.

For `Cc1ccc(-c2cc(N)n(-c3nc4c(c(=O)n(C)c(=O)n4C)n3C)n2)cc1`, the TGI is over 100 µM.

The molecule `O=C(Cc1ccccc1)NN1C(=O)/C(=C\c2cccc(O)c2)SC1=Nc1ccccc1` had a TGI of over 100 µM.

Take `CN(C)c1ccc(C2SCC(=O)N2NS(=O)(=O)c2cccc(C(=O)O)c2)cc1` (stereo not drawn): the TGI is over 100 µM.

With `CC1CCOc2ccc(cc2)C=Nc2ccc(cc2)CCc2ccc(cc2)N=Cc2ccc(cc2)OCC1` (stereo not drawn), the TGI was over 100 µM.

`CNC(=O)Oc1ccc(-c2cn3cc(OC(=O)NC)ccc3n2)cc1` registered a TGI of over 100 µM.

For `CC(=O)N1N=C(c2ccc3ccccc3c2O)CC1C(=O)c1ccco1` (stereo not drawn), the TGI is 55.5 µM.

The molecule `N#Cc1nc(-c2cccs2)oc1N` gave a TGI of over 100 µM.

In the case of `NC(=O)NNC(=O)c1nc[nH]c1[N+](=O)[O-]`, the TGI was over 100 µM.

The molecule `O=c1c2c([N+](=O)[O-])cccc2nc2[nH]c3ccccc3n12` returned a TGI of 52.2 µM.

`Cc1cc(C)cc(Nc2cc(=O)[nH]c(=O)[nH]2)c1`: the TGI was over 100 µM.

In the case of `Nn1c(CCCCCCCCc2nnc(COc3ccc(Cl)cc3)n2N)nnc1COc1ccc(Cl)cc1`, the TGI was over 100 µM.

`O=C(O)c1ccc(S(=O)(=O)c2ccccc2[N+](=O)[O-])cc1` came in with a TGI of over 10 µM.

In turn, `CC1(CF)SCc2nc3ccccc3n21` (stereo not drawn) registered a TGI of over 100 µM.

In the case of `C[C@]12CCc3nc(Nc4ccccc4)sc3C1=CC[C@@H]1[C@@H]2CC[C@]2(C)/C(=N/NC(N)=S)CC[C@@H]12`, the GI50 is 32.6 µM and the TGI was over 100 µM.

As to `COC(=O)C1=C2SCc3cccc(c3)CSC3=C(C(=O)OC)SC(=C(S2)S1)S3`, the TGI was over 100 µM.

As for `Nc1cccc(Nc2nc3ccccc3nc2NS(=O)(=O)c2ccccc2)c1`, the TGI was 33.9 µM.

On to `COC(=O)C1=CC(=O)OC1(OO)c1ccccc1` (stereo not drawn), for which the TGI was over 100 µM.

The molecule `CN(C)Cc1cc(C(=O)/C=C/c2ccccc2Cl)cc(CN(C)C)c1O` came in with a TGI of 36.6 µM.

The molecule `O=C1NC(N/N=C/C(O)C(O)C(O)CO)=N/C1=C\c1ccco1` (stereo not drawn) returned a TGI of over 100 µM.

As to `Cc1ccn2c(=O)cc(-c3ccccc3)nc2c1`, the TGI is over 100 µM.

In turn, `O=c1[nH]nc(Cc2ccc([N+](=O)[O-])cc2)n1CCO` came in with a TGI of over 100 µM.

With `O=C(O)CC[N+]1=CCC(c2ccccc2)(c2ccccc2)O1`, the TGI is over 100 µM.

Take `CC1=NN(c2ccc(S(=O)(=O)O)cc2)C2(C1)SCC(=O)N2c1nc2ccccc2s1` (stereo not drawn): the TGI was over 100 µM.

With `CCc1ccc2oc(-c3cc(O)c(-c4nc5cc(CC)ccc5o4)cc3O)nc2c1`, the TGI was over 100 µM.

`CCOC(=O)/C=C(/C(=O)OCC)n1ccc(N)nc1=O` came in with a TGI of over 100 µM.

`Cc1ccc2c(c1)[nH]c1cc(C(F)(F)F)ccc1[p+]2=O` (stereo not drawn) came in with a TGI of over 100 µM.

On to `NCCN=C(Nc1ccccc1)Nc1ccccc1`, for which the TGI is over 100 µM.

`C/C=C/C(O)P1(=O)N(Cc2ccccc2)[C@@H]2CCCC[C@H]2N1Cc1ccccc1` (stereo partly drawn) registered a TGI of over 25 µM.

Values taken from PubChem BioAssay (NCI).
